In BindingDB's records for doi:10.1021/jm070851i (Wyeth Research, 2007):

Molecular target: T1, 3-phosphoinositide-dependent protein kinase 1 (Homo sapiens, UniProt O15530)
T1 sequence (O15530 whole entry): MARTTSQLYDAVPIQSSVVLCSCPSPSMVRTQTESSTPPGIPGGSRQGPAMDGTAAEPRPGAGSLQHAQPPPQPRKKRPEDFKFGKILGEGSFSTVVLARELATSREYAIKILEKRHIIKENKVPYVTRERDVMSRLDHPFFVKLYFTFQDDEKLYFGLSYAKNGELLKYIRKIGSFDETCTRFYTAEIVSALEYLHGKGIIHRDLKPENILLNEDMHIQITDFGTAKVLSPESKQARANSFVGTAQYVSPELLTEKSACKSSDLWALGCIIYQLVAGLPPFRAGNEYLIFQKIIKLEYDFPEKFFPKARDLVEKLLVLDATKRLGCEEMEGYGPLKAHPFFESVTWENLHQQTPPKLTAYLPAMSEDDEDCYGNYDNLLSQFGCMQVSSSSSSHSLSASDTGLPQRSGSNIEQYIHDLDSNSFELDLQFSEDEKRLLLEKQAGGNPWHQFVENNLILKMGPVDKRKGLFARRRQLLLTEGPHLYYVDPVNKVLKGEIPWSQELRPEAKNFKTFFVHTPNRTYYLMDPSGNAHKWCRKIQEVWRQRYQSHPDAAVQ
Test: ELISA assay
Details: pH 7.4; 23 °C
Description: A homogeneous in vitro assay based on a LANCE format was first used for high-throughput screening. […] ELISA IC50s were determined by Microsoft Excel data analysis wizard model 63 with the luminescent signal from wells without compound treatment as 100%.

- IC50: 300 nM
SMILES: COc1cc2c(cc1NCCN1CCOCC1)ncc1c(N)nc3c(C)c(N)ccc3c12 [16-methoxy-6-methyl-15-N-[2-(morpholin-4-yl)ethyl]-8,12-diazatetracyclo[8.8.0.0^{2,7}.0^{13,18}]octadeca-1(10),2(7),3,5,8,11,13,15,17-nonaene-5,9,15-triamine]
